pIC50: −log10 of the molar value.
Legend:
NLBal pseudotyped HIV-1 = experiment: Antiviral assay, luciferase reporter in JC53BL cells; assay type: cell-based; details: Human immunodeficiency virus 1, JC53BL, 72 h, read-out: Antiviral Assay IC50
Experimental: The sensitivity of a recombinant HIV-1 virus pseudotyped with the envelope proteins of the CCR5-tropic virus NLBal to test compounds was determined in a Luciferase reporter assay using JC53BL cells. NLBal pseudotyped HIV-1 was generated by calcium phosphate transfection of 293T cells (ATCC) with equal amounts of DNA of an envelope-deleted HIV-1 plasmid and of a NLBal envelope expression plasmid. The media (DMEM, 10% fetal bovine serum, 1% Penicillin/streptomycin, 1% Glutamine, all Gibco) was changed 16 h post-transfection and virus containing supernatant was harvested 48 h post-transfection. To determine the sensitivity of NLBal pseudotyped HIV-1, 25.000 JC53BL cells (NIH AIDS Reagent Program) were infected with NLBal pseudotyped HIV-1 in presence of a drug gradient in white 96 well plates (Greiner Bio-one). The volume was adjusted to 200 μL using assay media (DMEM, 10% fetal bovine serum, 1% Penicillin/streptomycin, 1% Glutamine). After incubation at 37° C., 90% relative humidity, 5% CO2 for 3 days, 50 μL of Steady-Glo® Luciferase reagent (Promega) was added, incubated for 5 min at RT and luminescence was measured using a luminometer (Luminoskan, Thermo). The 50% and 90% inhibitory concentrations were calculated using Microsoft XL Fit 4 software.

Human CCR5 receptor = biological target: T1, Human CCR5 receptor (Homo sapiens, UniProt P51681); experiment: Human CCR5 receptor-ligand binding assay; details: CHO-Gα16-hCCR5 cells, 125I RANTES radioligand
T1 construct: expressed in transfected cells
T1 sequence (P51681 whole entry): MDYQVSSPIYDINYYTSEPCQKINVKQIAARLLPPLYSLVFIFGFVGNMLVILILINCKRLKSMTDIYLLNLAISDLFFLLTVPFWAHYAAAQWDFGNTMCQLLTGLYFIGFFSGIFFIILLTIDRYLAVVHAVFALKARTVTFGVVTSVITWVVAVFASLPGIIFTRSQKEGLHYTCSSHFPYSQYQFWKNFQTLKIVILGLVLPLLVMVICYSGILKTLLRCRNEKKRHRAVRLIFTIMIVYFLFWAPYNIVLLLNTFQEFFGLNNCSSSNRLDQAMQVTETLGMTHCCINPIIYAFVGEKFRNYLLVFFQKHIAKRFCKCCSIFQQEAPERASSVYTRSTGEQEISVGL
Text: Human CCR5 receptor (Genebank ID: 29169292) was cloned into mammalian expression vector, pTarget (Promega). The construct was transfected into CHO-Gα16 cells by using Fugene Reagent (Roche). Clones were selected under antibiotic pressure (G418 and Hygromycin) and sorted 4 times with a fluorescence activates cell sorter and a monoclonal antibody specific for CCR5 receptor (BD Biosciences Pharmigen, Mab 2D7, Cat. No. 555993). The clone with highest expression (100,000 copies per cell) was chosen for the binding assays.
Adherent cells in […] tissue culture flask (˜90% confluent) were harvested using 1 mM EDTA in PBS (phosphate-buffered saline) without Ca^2+ and Mg^2+. Cells were washed twice with PBS containing no Ca^2+ and Mg^2+. CHO-Gα16-hCCR5 cells were then resuspended (1×10^6/mL) in ice cold binding buffer (50 mM HEPES, 1 mM CaCl2, 5 mM MgCl2, 0.5% BSA, 0.05% NaN3, pH 7.24), pH 7.4), supplemented with freshly made 0.5% BSA and 0.05% NaN3.
Eighty μl CHO-Gα16-hCCR5 (1×10^6/mL) cells were added to 96 well plates. All dilutions were made in binding buffer (50 mM HEPES, 1 mM CaCl2, 5 mM MgCl2, 0.5% BSA, 0.05% NaN3, pH 7.24).
The plates were incubated on a cell shaker at RT for 2 h with a final concentration of 0.1 nM ^125I RANTES or ^125I MIP-1α or ^125I MIP-1β. The compound dilutions were made in PBS, 1% BSA. Total reaction volume was 100 μl per well. The test compounds were added to the cells prior to the addition of radioligand.
After incubation, the cells were harvested onto GF/C filter plates using Packard cell harvester. Filters were pretreated with 0.3% PEI/0.2% BSA for 30 min. The filter plate was washed rapidly 5 times with 25 mM HEPES, 500 mM NaCl, 1 mM CaCl2 and 5 mM MgCl2 adjusted to pH 7.1. Plates were dried in oven (70° C.) for 20 min, added with 40 μl scintillation fluid and sealed with Packard TopSeal-A. Packard Top Count was used to measure of the radioactivity for 1 min per well.
Total binding was determined with control wells added with radioisotope and buffer and the non-specific binding was determined using an excess cold RANTES to some of the control wells. Specific binding was determined by subtracting the non-specific form total binding. Results are expressed as the percentage of specific ^125I RANTES binding. IC50 values were determined using varying concentrations of the test ligand in triplicates and the data was analyzed using GraphPad Prism (GraphPad, San Diego, Calif.). c, […]

[1] = test system: collagen-induced arthritis; details: collagen-induced arthritis model; cited from earlier work

| Compound | pIC50 (Human CCR5 receptor) | other results |
| --- | --- | --- |
| CCCCC1CN(C2CCOCC2)C(=O)N1C1CCN(C2(C)CCN(C(=O)c3c(C)cc(C#N)nc3C)CC2)CC1 (stereo not shown) [I-1, 5-{4-[5-Butyl-2-oxo-3-(tetrahydro-pyran-4-yl)-imidazolidin-1-yl]-4′-methyl-[1,4′]bipiperidinyl-1′-carbonyl}-4,6-dimethyl-pyridine-2-carbonitrile] | 8.07 | pIC50 (NLBal pseudotyped HIV-1): 7.70 |
| CCCCC1CN(C2CCOCC2)C(=O)N1C1CCN(C2(C)CCN(C(=O)c3c(C)ncnc3C)CC2)CC1 (stereo not shown) [I-2] | 6.01 | – |
| CCCCC1CN(CC2CCOCC2)C(=O)N1C1CCN(C2(C)CCN(C(=O)c3c(C)ncnc3C)CC2)CC1 (stereo not shown) [I-3, 4-Butyl-3-[1′-(4,6-dimethyl-pyriridine-5-carbonyl)-4′-methyl-[1,4′]bipiperidinyl-4-yl]-1-(tetrahydro-pyran-4-ylmethyl)-imidazolidin-2-one] | 6.96 | – |
| CCCCC1CN(CC2CCOCC2)C(=O)N1C1CCN(C2(C)CCN(C(=O)c3c(C)cc(C#N)nc3C)CC2)CC1 (stereo not shown) [I-4] | 8.36 | – |
| Cc1ncnc(C)c1C(=O)N1CCC(C)(N2CCC(N3C(=O)N(CC4CCOCC4)C[C@H]3c3ccccc3)CC2)CC1 [I-5, (R)-3-[1′-(4,6-Dimethyl-pyrimidine-5-carbonyl)-4′-methyl-[1 ,4′]bipiperidinyl-4-yl]-4-phenyl-1-(tetrahydro-pyran-4-ylmethyl)-imidazolidin-2-one] | 7.63 | – |
| Cc1ncnc(C)c1C(=O)N1CCC(C)(N2CCC(N3C(=O)N(CC4CCOCC4)CC3c3ccccc3)CC2)CC1 (stereo not shown) [I-6, 3-[1′-(4,6-Dimethyl-pyrimidine-5-carbonyl)-4′-methyl-[1,4′]bipiperidinyl-4-yl]-4-phenyl-1-(tetrahydro-pyran4-ylmethyl)-imidazolidin-2-one] | 7.56 | – |
| Cc1cc(C#N)nc(C)c1C(=O)N1CCC(C)(N2CCC(N3C(=O)N(CC4CCOCC4)C[C@H]3c3ccccc3)CC2)CC1 [I-7] | 7.95 | – |
| Cc1noc(C(F)(F)F)c1C(=O)N1CCC(C)(N2CCC(N3C(=O)N(CC4CCOCC4)C[C@H]3c3ccccc3)CC2)CC1 [I-8] | 8.29 | – |
| CCO[C@H]1CC[C@H](CN2C[C@@H](c3ccccc3)N(C3CCN(C4(C)CCN(C(=O)c5c(C)ncnc5C)CC4)CC3)C2=O)CC1 [I-9] | 7.90 | – |
| CCO[C@H]1CC[C@H](CN2C[C@@H](c3ccccc3)N(C3CCN(C4(C)CCN(C(=O)c5c(C)cc(C#N)nc5C)CC4)CC3)C2=O)CC1 [I-10] | 7.97 | – |
| CCO[C@H]1CC[C@H](CN2C[C@@H](c3ccccc3)N(C3CCN(C4(C)CCN(C(=O)c5c(C)noc5C(F)(F)F)CC4)CC3)C2=O)CC1 [I-11] | 8.17 | – |
| Cc1cc(C#N)nc(C)c1C(=O)N1CCC(C)(N2CCC(N3C(=O)N(C4CCOCC4)C[C@H]3c3ccccc3)CC2)CC1 [I-12] | 7.05 | – |
| Cc1ncnc(C)c1C(=O)N1CCC(C)(N2CCC(N3C(=O)N(C4CCOCC4)C[C@H]3c3ccccc3)CC2)CC1 [I-13] | 7.05 | – |
| Cc1ncnc(C)c1C(=O)N1CCC(C)(N2CCC(N3C(=O)N(CC4CCN(CC(F)F)CC4)C[C@H]3c3ccccc3)CC2)CC1 [I-14, (R)-1-[1-(2,2-Difluoro-ethyl)-piperidin-4-ylmethyl]-3-[1′-(4,6-dimethyl-pyrimidine-5-carbonyl)-4′-methyl-[1,4′]bipiperidinyl-4-yl]-4-phenyl-imidazolidin-2-one] | 7.58 | – |
| Cc1cc(C#N)nc(C)c1C(=O)N1CCC(C)(N2CCC(N3C(=O)N(CC4CCN(CC(F)F)CC4)C[C@H]3c3ccccc3)CC2)CC1 [I-15] | 7.74 | – |
| COC(=O)N1CCC(CN2C[C@@H](c3ccccc3)N(C3CCN(C4(C)CCN(C(=O)c5c(C)ncnc5C)CC4)CC3)C2=O)CC1 [I-16, 4-{(R)-3-[1′-(4,6-Dimethyl-pyrimidine-5-carbonyl)-4′-methyl-[1,4′]bipiperidinyl-4-yl]-2-oxo-4-phenyl-imidazolidin-1-ylmethyl}-piperidine-1-carboxylic acid methyl ester] | 7.59 | – |
| COC(=O)N1CCC(CN2C[C@@H](c3ccccc3)N(C3CCN(C4(C)CCN(C(=O)c5c(C)cc(C#N)nc5C)CC4)CC3)C2=O)CC1 [I-17] | 7.45 | – |
| Cc1cc(C#N)nc(C)c1C(=O)N1CCC(C)(N2CCC(N3C(=O)N(CC4CCN(S(C)(=O)=O)CC4)C[C@H]3c3ccccc3)CC2)CC1 [I-18, 5-{4-[(R)-3-(1-Methanesulfonyl-piperidin4-ylmethyl)-2-oxo-5-phenyl-imidazolidin-1-yl]-4′-methyl-[1,4′]bipiperidinyl-1′-carbonyl}-4,6-dimethyl-pyridine-2-carbonitrile] | 7.44 | – |
| Cc1ncnc(C)c1C(=O)N1CCC(C)(N2CCC(N3C(=O)N(CC4CCN(S(C)(=O)=O)CC4)C[C@H]3c3ccccc3)CC2)CC1 [I-19] | 6.93 | – |
| CC(=O)N1CCC(CN2C[C@@H](c3ccccc3)N(C3CCN(C4(C)CCN(C(=O)c5c(C)cc(C#N)nc5C)CC4)CC3)C2=O)CC1 [I-20, 5-{4-[(R)-3-(1-Acetyl-piperidin-4-ylmethyl)-2-oxo-5-phenyl-imidazolidin-1-yl]-4′-methyl-[1,4′]bipiperidinyl-1′-carbonyl}-4,6-dimethyl-pyridine-2-carbonitrile] | 7.37 | – |
| Cc1cc(C#N)nc(C)c1C(=O)N1CCC(C)(N2CCC(N3C(=O)N(CC4CCN(C(N)=O)CC4)C[C@H]3c3ccccc3)CC2)CC1 [I-21, 4-{(R)-3-[1′-(6-Cyano-2,4-dimethyl-pyridine-3-carbonyl)-4′-methyl-[1,4′]bipiperidinyl-4-yl]-2-oxo-4-phenyl-imidazolidin-1-ylmethyl}-piperidine-1-carboxylic acid amide] | 7.36 | – |
| Cc1cc(C#N)nc(C)c1C(=O)N1CCC(C)(N2CCC(N3C(=O)N(C4CCC(O)CC4)C[C@H]3c3ccccc3)CC2)CC1 (stereo partly drawn) [I-23, 5-{4-[(R)-3-(4-Hydroxy-cyclohexyl)-2-oxo-5-phenyl-imidazolidin-1-yl]-4′-methyl-[1,4′]bipiperidinyl-1′-carbonyl}-4,6-dimethyl-pyridine-2-carbonitrile] | 7.69 | – |
| Cc1noc(C(F)(F)F)c1C(=O)N1CCC(C)(N2CCC(N3C(=O)N(C[C@H]4CC[C@H](O)CC4)C[C@H]3c3ccccc3)CC2)CC1 [I-24, (R)-1-(4-Hydroxy-cyclohexylmethyl)-3-[4′-methyl-1′-(3-methyl-5-trifluoromethyl-isoxazole-4-carbonyl)-[1,4′]bipiperidinyl-4-yl]-4-phenyl-imidazolidin-2-one] | 8.15 | – |
| Cc1cc(C#N)nc(C)c1C(=O)N1CCC(C)(N2CCC(N3C(=O)N(CC4CCOC4)CC3c3ccccc3)CC2)CC1 (stereo not shown) [I-25] | 7.26 | – |
| CCO[C@H]1CC[C@H](CN2C[C@@H](c3ccccn3)N(C3CCN(C4(C)CCN(C(=O)c5c(C)cc(C#N)nc5C)CC4)CC3)C2=O)CC1 [I-26, 5-{4-[(S)-3-(4-Ethoxy-cyclohexylmethyl)-2-oxo-5-pyridin-2-yl-imidazolidin-1-yl]-4′-methyl-[1,4′]bipiperidinyl-1′-carbonyl}-4,6-dimethyl-pyridine-2-carbonitrile] | 7.61 | – |
| Cc1ncnc(C)c1C(=O)N1CCC(C)(N2CCC(N3C(=O)N(CC4CCOCC4)CC3c3cccc(F)c3)CC2)CC1 (stereo not shown) [I-27] | 7.05 | – |
| TAK-779 | – | incidence and severity of arthritis [1]: reduce both the incidence and severity of arthritis |

Source: patent US20090028818A1, “Heterocyclic antiviral compounds” (Roche Palo Alto LLC, priority 2007, published 2009)
